According to patent publication US9670203B2 (BeiGene, LTD., priority 2013, dated 2017):

Key:
B-Raf (V600E) = B-Raf (V600E) (Homo sapiens (Human), UniProt P15056, V600E); assay: Raf IC50 assay, time-resolved fluorescence energy transfer, B-Raf (V600E); format: biochemical; settings: 0.1 mM ATP; read-out: IC50 (nM) B_Raf^V600E
Method: The enzyme was incubated with the compounds at room temperature for 60 minutes and the reactions were initiated by the addition of ATP and GST-MEK1. After reaction at room temperature for 60 minutes, an equal volume of stop/detection solution was added according to the manufacture's instruction (CisBio Bioassays). […] The IC50 for each compound was derived from fitting the dose-response % inhibition data to the four-parameter logistic model by Graphpad Prism software.

A375 = assay: Anti-proliferative activity EC50 assay (CellTiter-Glo) in A375; format: cell-based; settings: Homo sapiens, A-375, 72 h; 3-day exposure; read-out: Cell Proliferation EC50 (nM) A375
Method: The growth-inhibitory activity of compounds in A375 and p61-A375, was determined using CellTiter-Glo luminescent cell viability assay (Promega). The 2,000 cells were seeded per well of a 96-well plate to ensure logarithmic growth could occur over the 3 days treatment period. Cells were left to attach for 16 hours, cells were treated in duplicate with a 10-point dilution series. Following a 3-day exposure to compounds disclosed herein, a volume of CellTiter-Glo reagent equal to the volume of cell culture medium present in each well was added. Mixture was mixed on an orbital shaker for 2 minutes to allow cell lysis, followed by 10 minutes incubation at room temperature to allow stabilization of luminescent signal, which corresponded to quantitation of ATP and thus the quantitation of metabolically active cells. Luminescent signal was measured using Pherastar FS reader (BMG Labtech).
EC50 values for growth inhibition were calculated by fitting dose-dependent data to the four-parameter logistic model using GraphPad Prism software.

Chain of B-Raf (V600E) (P15056 whole entry V600E): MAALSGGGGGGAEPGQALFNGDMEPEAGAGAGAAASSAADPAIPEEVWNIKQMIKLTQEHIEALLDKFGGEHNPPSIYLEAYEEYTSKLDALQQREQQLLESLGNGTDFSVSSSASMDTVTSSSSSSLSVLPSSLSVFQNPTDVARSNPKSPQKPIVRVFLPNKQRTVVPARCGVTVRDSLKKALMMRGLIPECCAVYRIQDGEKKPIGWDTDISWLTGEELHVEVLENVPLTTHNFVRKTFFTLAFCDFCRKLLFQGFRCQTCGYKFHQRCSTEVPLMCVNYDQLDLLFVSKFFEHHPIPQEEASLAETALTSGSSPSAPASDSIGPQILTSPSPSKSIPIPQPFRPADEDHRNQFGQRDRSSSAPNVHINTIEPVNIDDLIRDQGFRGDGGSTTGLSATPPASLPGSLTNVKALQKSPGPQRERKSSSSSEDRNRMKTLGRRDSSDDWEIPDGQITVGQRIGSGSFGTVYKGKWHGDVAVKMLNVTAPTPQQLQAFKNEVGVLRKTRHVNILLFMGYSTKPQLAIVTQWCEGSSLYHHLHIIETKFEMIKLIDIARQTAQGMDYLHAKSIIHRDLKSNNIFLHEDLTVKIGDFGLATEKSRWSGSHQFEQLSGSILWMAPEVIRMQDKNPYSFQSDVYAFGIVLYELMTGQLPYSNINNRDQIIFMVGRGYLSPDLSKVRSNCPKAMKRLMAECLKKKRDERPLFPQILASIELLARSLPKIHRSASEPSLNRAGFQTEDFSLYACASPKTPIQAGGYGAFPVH

Row | SMILES | IC50 (B-Raf (V600E)) | EC50 (A375)
1 | COc1ccc(NC(=O)N[C@@H]2[C@H]3Oc4ccc(Oc5ccnc6c5CCC(=O)N6)cc4[C@@H]23)c(Cl)c1 [Compound 1.4] | 1.8 nM | –
2 | COc1ccc(Cl)c(NC(=O)N[C@@H]2[C@H]3Oc4ccc(Oc5ccnc6c5CCC(=O)N6)cc4[C@@H]23)c1 [Compound 1.5] | 2.2 nM | –
3 | O=C1CCc2c(Oc3ccc4c(c3)[C@H]3[C@H](NC(=O)Nc5cc(Br)ccc5Cl)[C@H]3O4)ccnc2N1 [Compound 1.8] | 8.7 nM | –
4 | O=C1CCc2c(Oc3ccc4c(c3)[C@H]3[C@H](NC(=O)Nc5ccc(Br)cc5Cl)[C@H]3O4)ccnc2N1 [Compound 1.10] | 6.3 nM | –
5 | O=C1CCc2c(Oc3ccc4c(c3)[C@H]3[C@H](NC(=O)Nc5cccc([N+](=O)[O-])c5)[C@H]3O4)ccnc2N1 [Compound 1.13] | 1.8 nM | –
6 | COc1ccc(NC(=O)N[C@@H]2[C@H]3Oc4ccc(Oc5ccnc6c5CCC(=O)N6)cc4[C@@H]23)cc1OC [Compound 1.15] | 2.3 nM | –
7 | O=C1CCc2c(Oc3ccc4c(c3)[C@H]3[C@H](NC(=O)Nc5ccc6c(c5)CCC6)[C@H]3O4)ccnc2N1 [Compound 1.16] | 2.6 nM | –
8 | COc1cc(NC(=O)N[C@@H]2[C@H]3Oc4ccc(Oc5ccnc6c5CCC(=O)N6)cc4[C@@H]23)cc(OC)c1 [Compound 1.17] | 1.5 nM | –
9 | CC(C)(C)c1ccc(NC(=O)N[C@@H]2[C@H]3Oc4ccc(Oc5ccnc6c5CCC(=O)N6)cc4[C@@H]23)cc1 [Compound 1.18] | 16 nM | –
10 | Cc1cccc(Cl)c1NC(=O)N[C@@H]1[C@H]2Oc3ccc(Oc4ccnc5c4CCC(=O)N5)cc3[C@@H]12 [Compound 1.19] | 5.1 nM | 503 nM
11 | CN(C)Cc1ccc(NC(=O)N[C@@H]2[C@H]3Oc4ccc(Oc5ccnc6c5CCC(=O)N6)cc4[C@@H]23)cc1 [Compound 1.26] | 2680 nM | –
12 | COc1cc(NC(=O)N[C@@H]2[C@H]3Oc4ccc(Oc5ccnc6c5CCC(=O)N6)cc4[C@@H]23)c(Cl)cc1Cl [Compound 1.27] | 11 nM | –
13 | O=C1CCc2c(Oc3ccc4c(c3)[C@H]3[C@H](NC(=O)Nc5ccc(C(F)(F)F)cc5)[C@H]3O4)ccnc2N1 [Compound 1.29] | 6.9 nM | 222 nM
14 | O=C1CCc2c(Oc3ccc4c(c3)[C@H]3[C@H](NC(=O)Nc5ccccc5C(F)(F)F)[C@H]3O4)ccnc2N1 [Compound 1.30] | 3 nM | 583 nM
15 | O=C1CCc2c(Oc3ccc4c(c3)[C@H]3[C@H](NC(=O)Nc5ccncn5)[C@H]3O4)ccnc2N1 [Compound 1.36] | 1.3 nM | –
16 | O=C1CCc2c(Oc3ccc4c(c3)[C@H]3[C@H](NC(=O)Nc5cc(Cl)ccn5)[C@H]3O4)ccnc2N1 [Compound 1.37] | 0.85 nM | –
17 | O=C1CCc2c(Oc3ccc4c(c3)[C@H]3[C@H](NC(=O)Nc5ccc(C(F)(F)F)cn5)[C@H]3O4)ccnc2N1 [Compound 1.38] | 4 nM | –
18 | Cc1ccncc1NC(=O)N[C@@H]1[C@H]2Oc3ccc(Oc4ccnc5c4CCC(=O)N5)cc3[C@@H]12 [Compound 1.39] | 2.6 nM | –
19 | COc1ccc(NC(=O)N[C@@H]2[C@H]3Oc4ccc(Oc5ccnc6c5CCC(=O)N6)cc4[C@@H]23)cc1 [Compound 1.50] | 0.8 nM | –
20 | O=C1CCc2c(Oc3ccc4c(c3)[C@H]3[C@H](NC(=O)NC5CCCC5)[C@H]3O4)ccnc2N1 [Compound 1.51] | 0.59 nM | 273 nM
21 | O=C1CCc2c(Oc3ccc4c(c3)[C@H]3[C@H](NC(=O)NCc5cccc(C(F)(F)F)c5)[C@H]3O4)ccnc2N1 [Compound 1.54] | 1.9 nM | 2700 nM
22 | O=C1CCc2c(Oc3ccc4c(c3)[C@H]3[C@H](NC(=O)NCc5ccc(C(F)(F)F)cc5)[C@H]3O4)ccnc2N1 [Compound 1.56] | 158 nM | –
23 | O=C1CCc2c(Oc3ccc4c(c3)[C@H]3[C@H](NC(=O)NCc5cccc(F)c5)[C@H]3O4)ccnc2N1 [Compound 1.58] | 0.77 nM | 534 nM
24 | O=C1CCc2c(Oc3ccc4c(c3)[C@H]3[C@H](NC(=O)NCc5ccc(F)cc5)[C@H]3O4)ccnc2N1 [Compound 1.59] | 0.84 nM | 891 nM
25 | O=C1CCc2c(Oc3ccc4c(c3)[C@H]3[C@H](NC(=O)Nc5cccc(OC(F)(F)F)c5)[C@H]3O4)ccnc2N1 [Compound 1.60] | 8.6 nM | 193 nM
26 | O=C1CCc2c(Oc3ccc4c(c3)[C@H]3[C@H](NC(=O)Nc5ccc(OC(F)(F)F)cc5)[C@H]3O4)ccnc2N1 [Compound 1.61] | 7.4 nM | 975 nM

Row | SMILES | IC50 (B-Raf (V600E)) | EC50 (A375)
27 | O=C1CCc2c(Oc3ccc4c(c3)[C@H]3[C@H](NC(=O)Nc5ccccc5OC(F)(F)F)[C@H]3O4)ccnc2N1 [Compound 1.62] | 6.3 nM | 302 nM
28 | CN1CCN(Cc2ccc(NC(=O)N[C@@H]3[C@H]4Oc5ccc(Oc6ccnc7c6CCC(=O)N7)cc5[C@@H]34)cc2)CC1 [Compound 1.63] | > 5000 nM | –
29 | O=C1CCc2c(Oc3ccc4c(c3)[C@H]3[C@H](NC(=O)Nc5ccc(C(F)(F)F)c(F)c5)[C@H]3O4)ccnc2N1 [Compound 1.64] | 27 nM | –
30 | O=C1CCc2c(Oc3ccc4c(c3)[C@H]3[C@H](NC(=O)Nc5cc(C(F)(F)F)cc(C(F)(F)F)c5)[C@H]3O4)ccnc2N1 [Compound 1.65] | 116 nM | –
31 | O=C1CCc2c(Oc3ccc4c(c3)[C@H]3[C@H](NC(=O)NC5CCOCC5)[C@H]3O4)ccnc2N1 [Compound 1.67] | 4.2 nM | 4170 nM
32 | CN1CCC(NC(=O)N[C@@H]2[C@H]3Oc4ccc(Oc5ccnc6c5CCC(=O)N6)cc4[C@@H]23)CC1 [Compound 1.68] | 20 nM | –
33 | O=C1CCc2c(Oc3ccc4c(c3)[C@H]3[C@H](NC(=O)NC5CC5)[C@H]3O4)ccnc2N1 [Compound 1.69] | 30 nM | –
34 | O=C1CCc2c(Oc3ccc4c(c3)[C@@H]3[C@@H](NC(=O)Nc5cc(C(F)(F)F)ccn5)[C@@H]3O4)ccnc2N1 [Compound 1.72] | 1.9 nM | –
35 | CCN1CCN(Cc2ccc(NC(=O)N[C@@H]3[C@H]4Oc5ccc(Oc6ccnc7c6CCC(=O)N7)cc5[C@@H]34)cc2F)CC1 [Compound 1.74] | 821 nM | –
36 | O=C1CCc2c(Oc3ccc4c(c3)[C@H]3C(NC(=O)NCc5ccc(F)cc5C(F)(F)F)[C@H]3O4)ccnc2N1 (some centres unmarked) [Compound 1.76] | 3.4 nM | 1310 nM
37 | CC(C)(C)NC(=O)N[C@@H]1[C@H]2Oc3ccc(Oc4ccnc5c4CCC(=O)N5)cc3[C@@H]12 [Compound 1.77] | 4.5 nM | 4540 nM
38 | CCCCCCNC(=O)N[C@@H]1[C@H]2Oc3ccc(Oc4ccnc5c4CCC(=O)N5)cc3[C@@H]12 [Compound 1.78] | 0.72 nM | 1900 nM
39 | O=C1CCc2c(Oc3ccc4c(c3)[C@H]3[C@H](NC(=O)N[C@H]5CCc6ccccc65)[C@H]3O4)ccnc2N1 [Compound 1.81] | 2.7 nM | 159 nM
40 | O=C1CCc2c(Oc3ccc4c(c3)[C@H]3[C@H](NC(=O)N[C@@H]5CCc6ccccc65)[C@H]3O4)ccnc2N1 [Compound 1.82] | 2.4 nM | 867 nM
41 | CCCCCCCCCCNC(=O)N[C@@H]1[C@H]2Oc3ccc(Oc4ccnc5c4CCC(=O)N5)cc3[C@@H]12 [Compound 1.85] | 129 nM | –
42 | CN1CCN(c2ccc(NC(=O)N[C@@H]3[C@H]4Oc5ccc(Oc6ccnc7c6CCC(=O)N7)cc5[C@@H]34)cc2C(F)(F)F)CC1 [Compound 1.86, 1-(4-(4-methylpiperazin-1-yl)-3-(trifluoromethyl)phenyl)-3-((1S,1aS,6bS)-5-((7-oxo-5,6,7,8-tetrahydro-1,8-naphthyridin-4-yl)oxy)-1a,6b-dihydro-1H-cyclopropa[b]benzofuran-1-yl)urea] | 183 nM | –
43 | CCN1CCN(c2ccc(NC(=O)N[C@@H]3[C@H]4Oc5ccc(Oc6ccnc7c6CCC(=O)N7)cc5[C@@H]34)cc2C(F)(F)F)CC1 [Compound 1.87] | 227 nM | –
44 | O=C(Nc1ccc(F)cc1F)N[C@@H]1[C@H]2Oc3ccc(Oc4ccncn4)cc3[C@@H]12 [Compound 2.1, 1-(2,4-difluorophenyl)-3-((1S,1aS,6bS)-5-(pyrimidin-4-yloxy)-1a,6b-dihydro-1H-cyclopropa[b]benzofuran-1-yl)urea] | 1100 nM | –
45 | O=C(Nc1ccc(F)c(F)c1)N[C@@H]1[C@H]2Oc3ccc(Oc4ccncn4)cc3[C@@H]12 [Compound 2.2] | 111 nM | –
46 | O=C(Nc1ccc(F)c(C(F)(F)F)c1)N[C@@H]1[C@H]2Oc3ccc(Oc4ccncc4)cc3[C@@H]12 [Compound 2.9] | 24 nM | –
47 | O=C(Nc1cc(F)c(F)cc1F)N[C@@H]1[C@H]2Oc3ccc(Oc4ccncc4)cc3[C@@H]12 [Compound 2.10] | 50 nM | –
48 | O=C(Nc1cccc(C(F)(F)F)c1)N[C@@H]1[C@H]2Oc3ccc(Oc4ccncc4)cc3[C@@H]12 [Compound 2.11] | 58 nM | –
49 | O=C(Nc1ccc(F)c(C(F)(F)F)c1)N[C@@H]1[C@H]2Oc3ccc(Oc4ncnc5[nH]cnc45)cc3[C@@H]12 [Compound 2.12, 1-((1S,1aS,6bS)-5-((9H-purin-6-yl)oxy)-1a,6b-dihydro-1H-cyclopropa[b]benzofuran-1-yl)-3-(4-fluoro-3-(trifluoromethyl)phenyl)urea] | 10 nM | –
50 | O=C(Nc1ccc(F)cc1F)N[C@@H]1[C@H]2Oc3ccc(Oc4ncnc5[nH]cnc45)cc3[C@@H]12 [Compound 2.13] | 24 nM | –
51 | Nc1cc(Oc2ccc3c(c2)[C@H]2[C@H](NC(=O)Nc4ccc(F)cc4F)[C@H]2O3)ccn1 [Compound 2.14, 1-((1S,1aS,6bS)-5-((2-aminopyridin-4-yl)oxy)-1a,6b-dihydro-1H-cyclopropa[b]benzofuran-1-yl)-3-(2,4-difluorophenyl)urea] | 36 nM | –
52 | CNC(=O)c1cc(Oc2ccc3c(c2)[C@H]2[C@H](NC(=O)Nc4ccc(Cl)c(C(F)(F)F)c4)[C@H]2O3)ccn1 [Compound 2.16] | 88 nM | –
